Data on three compounds can be found in patent US5674881A, “Quaternary ammonium salts of aromatic amine compounds, their preparation and pharmaceutical compositions in which they are present” (Elf Sanofi, priority 1992, dated 1997).

One assay has as its system substance P. Briefly: substance P antagonism.
A further assay concerns neurokinin receptors. Briefly: affinity for the neurokinin receptors. The class given is binding.
Assay [1] deals with T1, substance P receptors on rat cortex (Rattus norvegicus, UniProt P14600).
T1 construct: in tests performed on rat cortex; from tissue; host or cells: rat cortex
Briefly: antagonism of the binding of substance P to its receptor, rat cortex. On the procedure:
(§1) Thus the compounds according to the invention antagonize the binding of substance P to its receptor with a Ki of between 0.1 and 800 nM in tests performed on rat cortex and with a Ki of between 0.01 and 30 nM in tests performed on the lymphoblastic cell line IM9.

For assay [2], the target named is T2, substance P receptors on human cells of the IM9 line (Homo sapiens, UniProt P25103).
T2 construct: in tests performed on the lymphoblastic cell line IM9; endogenous in cells; host or cells: IM9 (human lymphoblastic cell line)
Briefly: antagonism of the binding of substance P to its receptor, lymphoblastic cell line IM9. The procedure: as §1

The subject of assay [3] is substance P receptors, IM9 cells. The note with it: substance P binding, Gitter et al. 1991; cited from earlier work.
For assay [4], the target named is substance P receptors (bovine receptor). The note with it: 3H-SP binding on bovine caudal membrane, Snider et al. 1991; cited from earlier work.
In assay [5] the test system is substance P receptors, U373 MG cells. The conditions noted are these: substance P binding, Gitter et al. 1991; cited from earlier work.
For assay [6], the target named is substance P receptors (rat receptor). The conditions noted are these: 3H-SP binding on rat cortical membranes, Snider et al. 1991; cited from earlier work.
The next assay deals with NK1 receptor. The note with it: agonist; D. Regoli 1988 and 1989; cited from earlier work.

T2 sequence (P25103 whole entry): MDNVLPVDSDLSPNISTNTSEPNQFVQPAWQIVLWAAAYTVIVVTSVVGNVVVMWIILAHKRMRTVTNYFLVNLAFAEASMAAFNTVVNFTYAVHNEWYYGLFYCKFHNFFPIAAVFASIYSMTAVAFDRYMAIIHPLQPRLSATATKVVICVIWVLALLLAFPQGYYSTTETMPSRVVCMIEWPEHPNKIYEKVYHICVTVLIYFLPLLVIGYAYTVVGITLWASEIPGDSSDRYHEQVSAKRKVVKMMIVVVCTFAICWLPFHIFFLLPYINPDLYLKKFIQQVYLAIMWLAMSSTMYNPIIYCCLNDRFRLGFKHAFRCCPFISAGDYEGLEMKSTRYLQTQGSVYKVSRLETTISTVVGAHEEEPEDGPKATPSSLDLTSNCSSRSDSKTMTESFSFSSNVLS
T1 sequence (P14600 whole entry): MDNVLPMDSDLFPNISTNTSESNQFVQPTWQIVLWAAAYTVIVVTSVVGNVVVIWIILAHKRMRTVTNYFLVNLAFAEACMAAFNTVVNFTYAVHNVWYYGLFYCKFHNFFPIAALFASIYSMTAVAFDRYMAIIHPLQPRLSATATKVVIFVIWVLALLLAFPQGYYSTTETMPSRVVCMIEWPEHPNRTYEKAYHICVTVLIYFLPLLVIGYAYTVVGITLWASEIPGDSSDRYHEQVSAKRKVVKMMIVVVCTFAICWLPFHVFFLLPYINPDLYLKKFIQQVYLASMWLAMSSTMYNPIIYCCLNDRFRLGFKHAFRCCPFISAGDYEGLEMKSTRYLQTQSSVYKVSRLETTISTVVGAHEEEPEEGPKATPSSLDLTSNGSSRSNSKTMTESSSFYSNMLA

`CC(C)Oc1cccc(CC(=O)N(C)CC(CCN2CCC(c3ccccc3)CC2)c2ccc(Cl)c(Cl)c2)c1` (stereo not drawn) [(I'b), N-Methyl-N-[4-(4-phenylpiperidin-1-yl)-2-(3,4-dichlorophenyl)butyl]-3-isopropoxyphenylacetamide]: the “substance P antagonism” value in the assay with substance P was “powerful substance P antagonists”. For the same compound, the “affinity for the neurokinin receptors” value in the assay on neurokinin receptors is “very high affinity”. Also, the Ki in [1] and in [2] was 0.3 to 0.6 nM throughout.
As for `COc1ccccc1CN[C@H]1C2CCN(CC2)[C@H]1C(c1ccccc1)c1ccccc1` [CP 96,345], the Ki in assay [3] was 0.4 nM; in [4] it was 3 nM; in [5], 0.4 nM; in [6], 240 nM.
In the case of [Sar^9, Met-(O2)^11 ]-SP, the “selectivity for the NK1 receptor” value with NK1 receptor is reported as “selective”.

Broadly, the Ki is a measure of affinity in units of concentration, obtained from inhibition or displacement.
